Earlier results in PubChem BioAssay AID1259409 (Chemical Carcinogenesis Research Information System (CCRIS), 2018).

Tested on: rodent chemically induced tumor inhibition, incidence and multiplicity
Experiment: CCRIS tumor inhibitor studies

**Q.** With C[C@]12CC[C@H](O)CC1=CC[C@@H]1[C@@H]2CC[C@]2(C)C(=O)CC[C@@H]12 as the compound, how does the “tumour outcome (control, treated, inhibition, significance)” value (Carcinogen: N-METHYL-N-NITROSOUREA, 684-93-5, Dose [Inhibitor]: 0, 5 PPM IN DIET FOR DURATION OF STUDY BEGINNING 1 WK PRIOR TO CARCINOGEN DOSE (STUDY DURATION: 109 D), Route [Inhibitor]: ORAL, Species: RAT, Strain/Sex: SPRAGUE-DAWLEY/FEMALE, Target Tissue: Type of Lesion: MAMMARY GLAND: TUMOR, Dose [Carcinogen]: 50 MG/KG BW IN ACIDIFIED SALINE (PH 5.0) ONCE, Promoter: NONE USED) read?
**A.** 100%, 89%, 11%, not calculated

**Q.** And the “tumour outcome (control, treated, inhibition, significance)” value (Carcinogen: N-METHYL-N-NITROSOUREA, 684-93-5, Dose [Inhibitor]: 0, 24 PPM IN DIET FOR DURATION OF STUDY BEGINNING 1 WK PRIOR TO CARCINOGEN DOSE (STUDY DURATION: 109 D), Route [Inhibitor]: ORAL, Species: RAT, Strain/Sex: SPRAGUE-DAWLEY/FEMALE, Target Tissue: Type of Lesion: MAMMARY GLAND: TUMOR, Dose [Carcinogen]: 50 MG/KG BW IN ACIDIFIED SALINE (PH 5.0) ONCE, Promoter: NONE USED)?
**A.** 100%, 80%, 20%, not calculated

**Q.** What about the “tumour outcome (control, treated, inhibition, significance)” value (Carcinogen: N-METHYL-N-NITROSOUREA, 684-93-5, Dose [Inhibitor]: 0, 120 PPM IN DIET FOR DURATION OF STUDY BEGINNING 1 WK PRIOR TO CARCINOGEN DOSE (STUDY DURATION: 109 D), Route [Inhibitor]: ORAL, Species: RAT, Strain/Sex: SPRAGUE-DAWLEY/FEMALE, Target Tissue: Type of Lesion: MAMMARY GLAND: TUMOR, Dose [Carcinogen]: 50 MG/KG BW IN ACIDIFIED SALINE (PH 5.0) ONCE, Promoter: NONE USED) of the same compound?
**A.** 100%, 80%, 20%, not calculated

**Q.** And the “tumour outcome (control, treated, inhibition, significance)” value (Carcinogen: N-METHYL-N-NITROSOUREA, 684-93-5, Dose [Inhibitor]: 0, 400 MG/KG DIET FOR DURATION OF STUDY BEGINNING 1 WK PRIOR TO CARCINOGEN DOSE (STUDY DURATION: 187 D), Route [Inhibitor]: ORAL, Species: RAT, Strain/Sex: SPRAGUE-DAWLEY/FEMALE, Target Tissue: Type of Lesion: MAMMARY GLAND: TUMOR, Dose [Carcinogen]: 35 MG/KG BW ONCE, Promoter: NONE USED)?
**A.** 85%, 0%, 100%, p<0.01

**Q.** What about the “tumour outcome (control, treated, inhibition, significance)” value (Carcinogen: N-METHYL-N-NITROSOUREA, 684-93-5, Dose [Inhibitor]: 0, 600 PPM IN DIET FOR DURATION OF STUDY BEGINNING 1 WK PRIOR TO CARCINOGEN DOSE (STUDY DURATION: 109 D), Route [Inhibitor]: ORAL, Species: RAT, Strain/Sex: SPRAGUE-DAWLEY/FEMALE, Target Tissue: Type of Lesion: MAMMARY GLAND: TUMOR, Dose [Carcinogen]: 50 MG/KG BW IN ACIDIFIED SALINE (PH 5.0) ONCE, Promoter: NONE USED) of the same compound?
**A.** 100%, 40%, 60%, not calculated

**Q.** And the “tumour outcome (control, treated, inhibition, significance)” value (Carcinogen: N-METHYL-N-NITROSOUREA, 684-93-5, Dose [Inhibitor]: 0, 800 MG/KG DIET FOR DURATION OF STUDY BEGINNING 1 WK PRIOR TO CARCINOGEN DOSE (STUDY DURATION: 187 D), Route [Inhibitor]: ORAL, Species: RAT, Strain/Sex: SPRAGUE-DAWLEY/FEMALE, Target Tissue: Type of Lesion: MAMMARY GLAND: TUMOR, Dose [Carcinogen]: 35 MG/KG BW ONCE, Promoter: NONE USED)?
**A.** 70%, 0%, 100%, p<0.01

**Q.** What about the “tumour outcome (control, treated, inhibition, significance)” value (Carcinogen: N-NITROSOMORPHOLINE, 59-89-2, Dose [Inhibitor]: 0.25% IN DIET (STUDY DURATION: 51 WK), Route [Inhibitor]: ORAL, Species: RAT, Strain/Sex: SPRAGUE-DAWLEY/MALE, Target Tissue: Type of Lesion: LIVER: HEMANGIOSARCOMA, Dose [Carcinogen]: 120 MG/L IN DRINKING WATER FOR FIRST 7 WK OF STUDY, Promoter: NONE USED) of the same compound?
**A.** 8/35 (23%), 1/35 (3%), 88%, p<0.05

**Q.** What about the “tumour outcome (control, treated, inhibition, significance)” value (Carcinogen: N-NITROSOMORPHOLINE, 59-89-2, Dose [Inhibitor]: 0.25% IN DIET (STUDY DURATION: 51 WK), Route [Inhibitor]: ORAL, Species: RAT, Strain/Sex: SPRAGUE-DAWLEY/MALE, Target Tissue: Type of Lesion: LIVER: HEPATOCELLULAR ADENOMA, MIXED CELL, Dose [Carcinogen]: 120 MG/L IN DRINKING WATER FOR FIRST 7 WK OF STUDY, Promoter: NONE USED) of the same compound?
**A.** 32/35 (91%), 28/35 (80%), 14%, not calculated

**Q.** What about the “tumour outcome (control, treated, inhibition, significance)” value (Carcinogen: N-NITROSOMORPHOLINE, 59-89-2, Dose [Inhibitor]: 0.25% IN DIET (STUDY DURATION: 51 WK), Route [Inhibitor]: ORAL, Species: RAT, Strain/Sex: SPRAGUE-DAWLEY/MALE, Target Tissue: Type of Lesion: LIVER: HEPATOCELLULAR CARCINOMA, Dose [Carcinogen]: 120 MG/L IN DRINKING WATER FOR FIRST 7 WK OF STUDY, Promoter: NONE USED) of the same compound?
**A.** 33%, 20%, 39%, not calculated

**Q.** What about the “tumour outcome (control, treated, inhibition, significance)” value (Carcinogen: N-methyl-N-nitrosourea, 684-93-5, Dose [Inhibitor]: 125 mg/kg in diet for 6 wks starting 6 wks after administration of carcinogen, Route [Inhibitor]: Oral, Species: Rat, Strain/Sex: Sprague Dawley/Female, Target Tissue: Type of Lesion: Mammary gland: tumors, Dose [Carcinogen]: 50 mg/kg injected once in 50 d old mice, tumors allowed to develop for 6 wks before inhibitor administration (Test mater, Promoter: None used) of the same compound?
**A.** 93.3%, 96.7%, -0.03%, not significant

**Q.** And the “tumour outcome (control, treated, inhibition, significance)” value (Carcinogen: N-methyl-N-nitrosourea, 684-93-5, Dose [Inhibitor]: 1000 mg/kg in diet for 6 wks starting 6 wks after administration of carcinogen, Route [Inhibitor]: Oral, Species: Rat, Strain/Sex: Sprague Dawley/Female, Target Tissue: Type of Lesion: Mammary gland: tumors, Dose [Carcinogen]: 50 mg/kg injected once in 50 d old mice, tumors allowed to develop for 6 wks before inhibitor administration (Test mater, Promoter: None used)?
**A.** 93.3%, 76.7%, 17.8%, not significant

**Q.** And the “tumour outcome (control, treated, inhibition, significance)” value (Carcinogen: NONE USED, Dose [Inhibitor]: 0, 0.45% IN DIET FOR DURATION OF STUDY (STUDY DURATION: 84 WK), Route [Inhibitor]: ORAL, Species: RAT, Strain/Sex: F344/MALE, Target Tissue: Type of Lesion: TESTES: LEYDIG CELL TUMOR, Promoter: NONE USED)?
**A.** 8/8 (100%), 0/13 (0%), 100%, p<0.005

**Q.** What about the “tumour outcome (control, treated, inhibition, significance)” value (Carcinogen: NONE USED, Dose [Inhibitor]: 450 MG/KG IN SESAME OIL 3/WK BEGINNING AT 5-6 WK OF AGE AND CONTINUING FOR DURATION OF STUDY (STUDY DURATION: 18 MO), Route [Inhibitor]: INTRAGASTRIC, Species: MOUSE, Strain/Sex: C3H-A/A/FEMALE, Target Tissue: Type of Lesion: MAMMARY GLAND: TUMOR, Promoter: NONE USED) of the same compound?
**A.** 21/78 (27%), 9/77 (12%), 56%, p<0.05

**Q.** What about the “tumour outcome (control, treated, inhibition, significance)” value (Carcinogen: NONE USED, Dose [Inhibitor]: 450 MG/KG IN SESAME OIL 3/WK BEGINNING AT 5-6 WK OF AGE AND CONTINUING FOR DURATION OF STUDY (STUDY DURATION: 18 MO), Route [Inhibitor]: INTRAGASTRIC, Species: MOUSE, Strain/Sex: C3H-AVY/A/FEMALE, Target Tissue: Type of Lesion: MAMMARY GLAND: TUMOR, Promoter: NONE USED) of the same compound?
**A.** 19/27 (70%), 5/23 (22%), 68%, p<0.005

**Q.** What about the “tumour outcome (control, treated, inhibition, significance)” value (Carcinogen: NONE USED, Dose [Inhibitor]: 450 MG/KG IN SESAME OIL 3/WK FOR DURATION OF STUDY (STUDY DURATION: 9 MO), Route [Inhibitor]: INTRAGASTRIC, Species: MOUSE, Strain/Sex: C3H-AVY/A/FEMALE, Target Tissue: Type of Lesion: MAMMARY GLAND: TUMOR, Promoter: NONE USED) of the same compound?
**A.** 14/26 (54%), 0/24 (0%), 100%, not calculated
